Measurements published in patent publication US20170348331A1, “METHODS AND COMPOSITIONS FOR […] LEVELS” (Children's Hospital & Research Center at Oakland, priority 2013, published 2017).

Assays:
TPH1 [1] = assay: TPH1 expression in peripheral blood cells of a pregnant mother by ELISA; type: in vivo, human; details: pregnant mother with elevated TPH1, ~1,000 IU per 11.3 kg per day, after 4 weeks
Method: TPH1 expression levels are determined from peripheral blood cells by ELISA analysis from a pregnant mother. […] This means that the mother has increased risk of having autistic child. Vitamin D is then be administered ˜1,000 IU per 11.3 kg per day. After 4 weeks of the vitamin D treatment, TPH1 expression levels are assayed in peripheral blood by ELISA analysis again. […] The vitamin D treatment will continue through pregnancy and breastfeeding. This implies the risk of having autistic child is reduced.

TPH1 [2] = assay: TPH1 expression in placental tissue homogenate of a pregnant person by ELISA; type: in vivo, human; details: pregnant person with elevated TPH1, about 1,000 IU per 11.3 kg per day, after 4 weeks
Method: TPH1 expression levels are determined from placental tissue homogenate obtained from a pregnant person by ELISA analysis. […] This means that the parent has increased risk of having child with autistic spectrum disorder. Vitamin D is then administered to the pregnant person at about 1,000 IU per 11.3 kg per day. After 4 weeks of the vitamin D treatment, TPH1 expression levels are assayed in placental tissue homogenate by ELISA analysis again. […] This implies the risk of having autistic child is reduced.

melatonin production = details: increasing doses of vitamin D supplementation; cited from earlier work
[3] = system: regulatory T cells (Tregs); details: vitamin D supplementation; cited from earlier work

Substance: Vitamin D
- TPH1 expression level in peripheral blood (TPH1 [1]): decreased to normal range
- TPH1 expression level in placental tissue homogenate (TPH1 [2]): decreased to normal range
- melatonin production (melatonin production): dose-dependent decrease
- Tregs in peripheral blood [3]: significantly increase Tregs
